# From patent US10166253B2, “Positively charged co-polymers for use as antimicrobial agents” (priority 2014, dated 2019)
# How the values were obtained:
# [1] = tested on: P. aeruginosa (Strain PAO1); test: Antimicrobial susceptibility testing by flow cytometry-based assay (LIVE/DEAD BacLight, Syto9/PI); type: cell-based
# Experimental: (§1) E. coli (strain NCTC 10418), P. aeruginosa (Strain PAO1) and S. aureus (Wood 46, NCTC 7121) cells were grown in 5 mL of Todd Hewitt Broth medium (THB; Sigma-Aldrich). Bacteria were cultivated at 37° C. for 15 h in a 15 mL tube to obtain late-log phase cultures. Bacterial cultures were pelleted at 3096 g for 10 minutes; the supernatant was discarded and bacteria were resuspended in phosphate-buffered saline (PBS) supplemented with 40 mg/ml human albumin to mimic chemical properties of blood. Bacteria were diluted to a standardized inoculum of 10^9 CFU/mL.
# (§2) Bacteria were treated with GA, LL-37, Piperacillin/Tazobactam or Vancomycin in varying concentrations, i.e. 50, 25, 10 or 2 μg/ml, for 30 minutes. As a positive control, bacteria were treated with 7% isopropanol. Hereafter, bacteria were pelleted at 3096 g for 10 minutes; the supernatant was discarded and bacteria were resuspended in PBS. The antimicrobial effect was tested in a well-established and widely used flow cytometry-based assay (LIVE/DEAD® BacLight™ Bacterial Viability and Counting Kit (L34856), Molecular Probes/Invitrogen) according to manufacturer's manual.
# (§3) For each bacteria, the flow cytometry-based assay was repeated four times.
# The antibacterial effect of GA on the gram-negative strain P. aeruginosa was tested by carrying out an experiment as described in Example 1. […] Although the untreated control stained positive for PI, this seemed to be explained by the capability of intact P. aeruginosa to secrete large quantities of DNA to the extracellular milieu.
# [2] = tested on: P. aeruginosa (PAO1); test: Antimicrobial activity in human serum and plasma (flow cytometry, PI/Syto9); type: cell-based, Pseudomonas aeruginosa; settings: P. aeruginosa PAO1 ~10^8 cells/ml
# Description: It has been reported that the antimicrobial activity of antimicrobial peptides are inhibited by their binding to different factors in human plasma (Wang, Y., et al., Apolipoprotein A-I binds and inhibits the human antibacterial/cytotoxic peptide LL-37. J Biol Chem, 1998. 273(50): p. 33115-8), serum and is influenced by pH and ion composition (Johansson, J., et al., Conformation-dependent antibacterial activity of the naturally occurring human peptide LL-37. J Biol Chem, 1998. 273(6): p. 3718-24). To investigate the potential of GA for systemic application, bacterial isolates of P. aeruginosa (PAO1, ˜10^8 cells/ml) were incubated with increasing concentrations of GA and compared to LL-37. Bacterial survival and enumeration was evaluated by a flow cytometry bead standard and stained with propidium iodide and Syto9 following procedures as previously described above in the antimicrobial susceptibility testing by flow cytometry-based assay. […] All experiments were performed as four replicates.
# [3] = tested on: E. coli (NCTC 10418); test: Transmission electron microscopy of treated bacteria; type: cell-based, Escherichia coli
# Description: (§4) Transmission electron microscopy (TEM) was applied to examine the ultrastructural changes in P. aeruginosa (PAO1), S. aureus (Wood 46) and E. coli (NCTC 10418) induced after treatment with GA and LL-37. […] This critical alteration in the outer membrane of E. coli has previously been described as a disintegration of the outer membrane into micelles and vesicle-like structures (Meincken, M., D. L. Holroyd, and M. Rautenbach, Atomic force microscopy study of the effect of antimicrobial peptides on the cell envelope of Escherichia coli. Antimicrob Agents Chemother, 2005. 49(10): p. 4085-92). […] After incubation with LL-37 and GA, we found burst cells, but this observation was most significant after treatment with LL-37 (FIG. 9). Scale bar, 0.5 μm. Experiments were performed as 2 replicates.
# [4] = tested on: P. aeruginosa (PAO1); test: as above; type: cell-based, Pseudomonas aeruginosa
# Description: as §4
# [5] = tested on: S. aureus (Wood 46, NCTC 7121); test: Antimicrobial susceptibility testing by flow cytometry-based assay (LIVE/DEAD BacLight, Syto9/PI); type: cell-based, Staphylococcus aureus; settings: 30 minutes
# Experimental: as §1, §2, §3
# [6] = tested on: S. aureus (Wood 46); test: Transmission electron microscopy of treated bacteria; type: cell-based, Staphylococcus aureus
# Description: as §4
# [7] = tested on: E. coli (strain NCTC 10418); test: Antimicrobial susceptibility testing by flow cytometry-based assay (LIVE/DEAD BacLight, Syto9/PI); type: cell-based, Escherichia coli
# Experimental: as §1, §2, §3
# Flow cytometry was used to determine the antimicrobial activity of GA and LL-37. The flow cytometry diagrams show the results after treatment with 50 μg/ml LL-37, GA, piperacillin/tazobactam, 7% isopropanol and the untreated control. […] This gating strategy was primarily applied to avoid counting beads in the upper right corner of the FS-SS. […] Thus, a two-color fluorescence assay of bacterial viability, including PI and Syto9 staining, was applied. Syto9 stains all bacteria in a population, i.e. those with intact and those with damaged membranes. In contrast, propidium iodide (PI) penetrates only bacteria with damaged membranes, thereby making quantification of bacterial viability possible.
# [8] = within the 30 minutes of treatment
# [9] = positive control, 7% isopropanol
compound,measurement,setting,value
CC[C@H](C)[C@H](NC(=O)[C@H](CCCCN)NC(=O)[C@H](CCC(=O)O)NC(=O)[C@H](CCCCN)NC(=O)[C@H](CO)NC(=O)[C@H](CCCCN)NC(=O)[C@H](CCCNC(=N)N)NC(=O)[C@H](Cc1ccccc1)NC(=O)[C@H](Cc1ccccc1)NC(=O)[C@H](CC(=O)O)NC(=O)CNC(=O)[C@H](CC(C)C)NC(=O)[C@@H](N)CC(C)C)C(=O)NCC(=O)N[C@@H](CCCCN)C(=O)N[C@@H](CCC(=O)O)C(=O)N[C@@H](Cc1ccccc1)C(=O)N[C@@H](CCCCN)C(=O)N[C@@H](CCCNC(=N)N)C(=O)N[C@H](C(=O)N[C@H](C(=O)N[C@@H](CCC(N)=O)C(=O)N[C@@H](CCCNC(=N)N)C(=O)N[C@H](C(=O)N[C@@H](CCCCN)C(=O)N[C@@H](CC(=O)O)C(=O)N[C@@H](Cc1ccccc1)C(=O)N[C@@H](CC(C)C)C(=O)N[C@@H](CCCNC(=N)N)C(=O)N[C@@H](CC(N)=O)C(=O)N[C@@H](CC(C)C)C(=O)N[C@H](C(=O)N1CCC[C@H]1C(=O)N[C@@H](CCCNC(=N)N)C(=O)N[C@H](C(=O)N[C@@H](CCC(=O)O)C(=O)N[C@@H](CO)C(=O)O)[C@@H](C)O)C(C)C)[C@@H](C)CC)C(C)C)[C@@H](C)CC [LL-37],antimicrobial activity (in words),[1]; [8],more potent than when treating bacteria with 7% isopropanol
same,decreased bacterial inoculum,[1]; [8],~75%
same,increased PI positivity,[1]; within the 30 minutes of treatment (FIG. 4 overview),~50%
same,antimicrobial activity in human plasma and serum (in words),[2],retains antimicrobial activity
same,"ultrastructural changes (TEM, in words)",[3],Signs of damage to the bacterial membrane
same,"ultrastructural changes (TEM, in words)",[4],dramatically reduced number of P. aeruginosa
same,antimicrobial activity (in words),[5],more potent than Vancomycin
same,percentage of bacteria testing positive for PI,[5],31.9%
same,"ultrastructural changes (TEM, in words)",[6],burst cells
same,percentage of bacteria testing positive for PI,"[7]; 50 μg/ml, 30 minutes",17.8%
same,percentage of bacteria testing positive for Syto-9,"[7]; 50 μg/ml, 30 minutes",75.1%
Piperacillin/Tazobactam,PI positivity,"[1]; 50 μg/ml, 30 minutes",about 30%
same,antimicrobial activity (in words),[1]; [8],no antimicrobial activity
same,percentage of bacteria testing positive for PI,"[7]; 50 μg/ml, 30 minutes",10%
same,percentage of bacteria testing positive for Syto-9,"[7]; 50 μg/ml, 30 minutes",86.8%
same,antimicrobial activity (in words),[7]; [8],no antimicrobial activity
CC(C)O [isopropanol],percentage of bacteria testing positive for PI,[7]; [9],32.2%
same,percentage of bacteria testing positive for Syto-9,[7]; [9],61.7%
CN[C@H](CC(C)C)C(=O)N[C@H]1C(=O)N[C@@H](CC(N)=O)C(=O)N[C@H]2C(=O)N[C@H]3C(=O)N[C@H](C(=O)N[C@H](C(=O)O)c4cc(O)cc(O)c4-c4cc3ccc4O)[C@H](O)c3ccc(c(Cl)c3)Oc3cc2cc(c3O[C@@H]2O[C@H](CO)[C@@H](O)[C@H](O)[C@H]2O[C@H]2C[C@](C)(N)[C@H](O)[C@H](C)O2)Oc2ccc(cc2Cl)[C@H]1O [Vancomycin],antimicrobial activity (in words),[5],comparable to the one obtained for LL-37
